According to patent US20060019270A1, “Global DNA methylation assessment using bisulfite PCR” (Board of Regents The University of Texas System, priority 2004, published 2006):

Tested on: Alu element methylation in Hct116 cells
Assay: Bisulfite Alu PCR and pyrosequencing, Hct116 cells treated with DAC
Format: cell-based, human
Experimental: Hct116, RKO and SW48, colon cancer cell lines (American Type Culture Collection, Manassas, Va.), were cultured using standard methods. Cells were treated with 5 μM 5-aza-2′deoxycytidine (DAC) for three days prior to being harvested. DNA from cell lines and peripheral blood leukocytes was extracted using phenol-chloroform extraction methods well known to one with skill on the art.
Bisulfite modification of genomic DNA is known in the art (see Clark et. al, 1994). In brief, 1.5 μg prepared 10 mM hydroquinone (Sigma) and 520 μl of 3M Sodium Bisulfite (Sigma) at pH=5.0 were added and mixed. The samples were overlayed with mineral oil to prevent evaporation and incubated at 50° C. for 16 hours. […] Bisulfite treated DNA was stored at −20° C. until ready for use.
The Alu element PCR reaction was modified for pyrosequencing based methylation analysis. […] The PCR product was purified and quantitated using the PSQ HS 96 Pyrosequencing System (Pyrosequencing, Inc.; Westborough, Mass.). […]
Bisulfite Alu PCR products could also be analyzed by pyrosequencing allowing for a rapid analysis of multiple CpG sites. […] This method has the advantage of analyzing several methylation sites, is not restricted to restriction enzyme sites, avoids sequencing multiple clones, and allows accurate quantitation of multiple CpG methylation sites in the same reaction. […]

In the case of `Nc1ncn([C@H]2C[C@H](O)[C@@H](CO)O2)c(=O)n1` [decitabine, 5-aza-2′-deoxycytidine], the “Alu methylation after DAC as percent of potential methylation sites” value (pyrosequencing, untreated about 87%) is reported as 62% and the “Alu methylation by pyrosequencing after DAC treatment (average of three CpG sites)” value (untreated 20.2%, SssI maximum 23.2%) is reported as 14.5%.
